Measurements from ChEMBL document CHEMBL1201862, “PubChem BioAssay data set” (2004).
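48-hour exposure; five concentrations; linearly interpolated endpoints. GI50 = concentration required for 50% inhibition of growth.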 Active and inactive are the calls of the source. Rule as the data show it: active = GI50 up to about 1.1 µM and inactive = higher.

What was measured:
Test in all cases: inhibition of tumour cell growth, NCI panel, 48 h
ACHN = tested on: ACHN
UACC-62 = tested on: UACC-62
SF-295 = tested on: SF-295
Malme-3M = tested on: Malme-3M
HOP-62 = tested on: HOP-62
NCI-H226 = tested on: NCI-H226
RPMI-8226 = tested on: RPMI-8226
OVCAR-3 = tested on: OVCAR-3
COLO 205 = tested on: COLO 205
SF-539 = tested on: SF-539
MOLT-4 = tested on: MOLT-4
NCI-H522 = tested on: NCI-H522
M19-MEL = tested on: M19-MEL
SK-MEL-5 = tested on: SK-MEL-5
HL-60 = tested on: HL-60
XF498 = tested on: XF498
TK-10 = tested on: TK-10
SNB-78 = tested on: SNB-78
OVCAR-4 = tested on: OVCAR-4
KM12 = tested on: KM12
HOP-92 = tested on: HOP-92
HCT-116 = tested on: HCT-116
SNB-75 = tested on: SNB-75
HT-29 = tested on: HT-29
RXF 393 = tested on: RXF 393
KM-20L2 = tested on: KM-20L2
UO-31 = tested on: UO-31
SNB-19 = tested on: SNB-19
K562 = tested on: K562
SK-MEL-2 = tested on: SK-MEL-2
OVCAR-5 = tested on: OVCAR-5
HCT-15 = tested on: HCT-15
DMS-114 = tested on: DMS-114
UACC-257 = tested on: UACC-257
CAKI-1 = tested on: CAKI-1
IGROV-1 = tested on: IGROV-1
SF-268 = tested on: SF-268
NCI-H23 = tested on: NCI-H23
SK-MEL-28 = tested on: SK-MEL-28
NCI-H460 = tested on: NCI-H460
U-251 = tested on: U-251
CCRF-CEM = tested on: CCRF-CEM
OVCAR-8 = tested on: OVCAR-8
SK-OV-3 = tested on: SK-OV-3
SN12C = tested on: SN12C
786-0 = tested on: 786-0
M14 = tested on: M14
LOX IMVI = tested on: LOX IMVI
DMS-273 = tested on: DMS-273
A549 = tested on: A549
LXFL 529 = tested on: LXFL 529
DLD-1 = tested on: DLD-1
SW-620 = tested on: SW-620
A498 = tested on: A498
EKVX = tested on: EKVX
HCC 2998 = tested on: HCC 2998

How did the GI50 (ACHN) turn out when `CC1(C)CC(c2c[nH]c3ccccc23)=CC2=Nc3ccccc3C21O` (stereo not drawn) was run?
Its GI50 is > 100 µM (inactive).

And the GI50 (UACC-62)?
The GI50 was > 100 µM (inactive).

What about the GI50 (SF-295) of the same molecule?
Its GI50 is 38.5 µM (inactive).

And the GI50 (Malme-3M)?
The GI50 was > 100 µM (inactive).

And the GI50 (HOP-62)?
The GI50 was > 100 µM (inactive).

What about the GI50 (NCI-H226) of the same molecule?
Its GI50 is 15.2 µM (inactive).

What about the GI50 (RPMI-8226) of the same molecule?
Its GI50 is > 100 µM (inactive).

What about the GI50 (OVCAR-3) of the same molecule?
Its GI50 is 33.3 µM (inactive).

What about the GI50 (COLO 205) of the same molecule?
The GI50 was > 100 µM (inactive).

What about the GI50 (SF-539) of the same molecule?
The GI50 was 93.1 µM (inactive).

And the GI50 (MOLT-4)?
Its GI50 is > 100 µM (inactive).

And the GI50 (NCI-H522)?
Its GI50 is 34.8 µM (inactive).

And the GI50 (M19-MEL)?
The GI50 was > 100 µM (inactive).

What about the GI50 (SK-MEL-5) of the same molecule?
Its GI50 is 36.4 µM (inactive).

What about the GI50 (HL-60) of the same molecule?
The GI50 was > 100 µM (inactive).

And the GI50 (XF498)?
The GI50 was 29.2 µM (inactive).

And the GI50 (TK-10)?
Its GI50 is > 100 µM (inactive).

And the GI50 (SNB-78)?
The GI50 was 76 µM (inactive).

And the GI50 (OVCAR-4)?
Its GI50 is 8.38 µM (inactive).

And the GI50 (KM12)?
The GI50 was > 100 µM (inactive).

And the GI50 (HOP-92)?
The GI50 was 15 µM (inactive).

What about the GI50 (HCT-116) of the same molecule?
The GI50 was 41.8 µM (inactive).

And the GI50 (SNB-75)?
Its GI50 is 5.94 µM (inactive).

What about the GI50 (HT-29) of the same molecule?
Its GI50 is 59.4 µM (inactive).

And the GI50 (RXF 393)?
Its GI50 is 37.8 µM (inactive).

And the GI50 (KM-20L2)?
The GI50 was > 100 µM (inactive).

What about the GI50 (UO-31) of the same molecule?
Its GI50 is > 100 µM (inactive).

And the GI50 (SNB-19)?
The GI50 was 65.2 µM (inactive).

What about the GI50 (K562) of the same molecule?
Its GI50 is 91.6 µM (inactive).

What about the GI50 (SK-MEL-2) of the same molecule?
The GI50 was > 100 µM (inactive).

And the GI50 (OVCAR-5)?
Its GI50 is > 100 µM (inactive).

What about the GI50 (HCT-15) of the same molecule?
The GI50 was greater than 100 µM.

What about the GI50 (DMS-114) of the same molecule?
Its GI50 is > 100 µM (inactive).

What about the GI50 (UACC-257) of the same molecule?
The GI50 was > 100 µM (inactive).

What about the GI50 (CAKI-1) of the same molecule?
The GI50 was 48.8 µM (inactive).

What about the GI50 (IGROV-1) of the same molecule?
Its GI50 is > 100 µM (inactive).

What about the GI50 (SF-268) of the same molecule?
Its GI50 is > 100 µM (inactive).

What about the GI50 (NCI-H23) of the same molecule?
Its GI50 is 34 µM (inactive).

And the GI50 (SK-MEL-28)?
Its GI50 is 16.4 µM (inactive).

And the GI50 (NCI-H460)?
Its GI50 is > 100 µM (inactive).

What about the GI50 (U-251) of the same molecule?
The GI50 was 33.2 µM (inactive).

And the GI50 (CCRF-CEM)?
The GI50 was > 100 µM (inactive).

What about the GI50 (OVCAR-8) of the same molecule?
The GI50 was 27 µM (inactive).

And the GI50 (SK-OV-3)?
Its GI50 is > 100 µM (inactive).

What about the GI50 (SN12C) of the same molecule?
The GI50 was > 100 µM (inactive).

What about the GI50 (786-0) of the same molecule?
Its GI50 is 43.7 µM (inactive).

What about the GI50 (M14) of the same molecule?
The GI50 was > 100 µM (inactive).

What about the GI50 (LOX IMVI) of the same molecule?
Its GI50 is > 100 µM (inactive).

What about the GI50 (DMS-273) of the same molecule?
The GI50 was > 100 µM (inactive).

What about the GI50 (A549) of the same molecule?
The GI50 was 35.5 µM (inactive).

And the GI50 (LXFL 529)?
Its GI50 is 47.4 µM (inactive).

What about the GI50 (DLD-1) of the same molecule?
The GI50 was > 100 µM (inactive).

And the GI50 (SW-620)?
Its GI50 is 52.1 µM (inactive).

And the GI50 (A498)?
The GI50 was > 100 µM (inactive).

And the GI50 (EKVX)?
Its GI50 is 63.1 µM (inactive).

What does the source list for `O=C1OC(=O)C23CSCC12C1C=CC3O1` (stereo not drawn)?
GI50 (ACHN): > 100 µM (inactive); GI50 (UACC-62): > 100 µM (inactive); GI50 (SF-295): > 100 µM (inactive); GI50 (Malme-3M): > 100 µM (inactive); GI50 (HOP-62): > 100 µM (inactive); GI50 (NCI-H226): > 100 µM (inactive); GI50 (HCC 2998): > 100 µM (inactive); GI50 (RPMI-8226): > 100 µM (inactive); GI50 (OVCAR-3): > 100 µM (inactive); GI50 (COLO 205): > 100 µM (inactive); GI50 (SF-539): > 100 µM (inactive); GI50 (MOLT-4): > 100 µM (inactive); GI50 (NCI-H522): > 100 µM (inactive); GI50 (M19-MEL): > 100 µM (inactive); GI50 (SK-MEL-5): > 100 µM (inactive); GI50 (HL-60): > 100 µM (inactive); GI50 (XF498): > 100 µM (inactive); GI50 (TK-10): > 100 µM (inactive); GI50 (KM12): > 100 µM (inactive); GI50 (HCT-116): > 100 µM (inactive); GI50 (SNB-75): > 100 µM (inactive); GI50 (HT-29): > 100 µM (inactive); GI50 (RXF 393): > 100 µM (inactive); GI50 (KM-20L2): > 100 µM (inactive); GI50 (UO-31): > 100 µM (inactive); GI50 (SNB-19): > 100 µM (inactive); GI50 (K562): > 100 µM (inactive); GI50 (SK-MEL-2): > 100 µM (inactive); GI50 (OVCAR-5): > 100 µM (inactive); GI50 (HCT-15): > 100 µM; GI50 (DMS-114): > 100 µM (inactive); GI50 (UACC-257): > 100 µM (inactive); GI50 (CAKI-1): > 100 µM (inactive); GI50 (IGROV-1): > 100 µM (inactive); GI50 (SF-268): > 100 µM (inactive); GI50 (NCI-H23): > 100 µM (inactive); GI50 (SK-MEL-28): > 100 µM (inactive); GI50 (NCI-H460): > 100 µM (inactive); GI50 (U-251): > 100 µM (inactive); GI50 (CCRF-CEM): > 100 µM (inactive); GI50 (OVCAR-8): > 100 µM (inactive); GI50 (SK-OV-3): > 100 µM (inactive); GI50 (SN12C): > 100 µM (inactive); GI50 (786-0): > 100 µM (inactive); GI50 (M14): > 100 µM (inactive); GI50 (LOX IMVI): > 100 µM (inactive); GI50 (DMS-273): > 100 µM (inactive); GI50 (A549): > 100 µM (inactive); GI50 (LXFL 529): > 100 µM (inactive); GI50 (DLD-1): > 100 µM (inactive); GI50 (SW-620): > 100 µM (inactive); GI50 (A498): > 100 µM (inactive); GI50 (EKVX): > 100 µM (inactive)
